Source: US20220313780A1, “METHODS AND COMPOSITIONS FOR TREATING INFLAMMATORY CONDITIONS” (THE SCRIPPS RESEARCH INSTITUTE, priority 2019, published 2022)
No end group written: not given here.

Tested on: caspase 1
Experiment: Caspase 1 activity assay in PMA-differentiated THP1 cells treated with LPS and ATP
Type: cell-based, human
Conditions: for anti-inflammatory activities relative to that of TR47: summary statement on exemplified TR47 fragments and variants
Procedure: THP1-null (THP1) cells were plated at a final concentration of 1×10^6/mL in 96 well plates and incubated with PMA (0.5 μM) for 3 hours 37° C. in supplemented RPMI. Media was subsequently changed every 24 hours for 3 days. Various subsets of wells were selected and cells were treated for 60 minutes at 37° C. in serum-free RPMI with: (A) APC (4 μg/mL), TR47 (50 μM-2 nM), scrTR47 (50 μM), SFLLRN (50 μM), TFLLRN (50 μM); (B) P3R (50 μM-500 nM), P3K (50 μM); (C) APC (4 or 1 μg/mL), TR47 (8 nM), P3R (500 nM) or TR47+P3R (8 nM and 500 nM, respectively); (D) TR47 (0-128 nM) (●)±P3R (500 nM) (□); (E) P3R (0-500 nM) (●)±TR47 (1 nM) (□). Following DPBS wash, cells were incubated with LPS (1 μg/mL) for 3 hours at 37° C. in serum-free RPMI. After a DPBS wash, cells were incubated with ATP (5 mM) in the presence or absence of 10 μM YVAD (caspase 1 inhibitor) or 2.5 μM ZVAD (pan-caspase inhibitor) for 45 minutes at 37° C., prior to performing the caspase 1 activity assay following manufacturer's directions measuring luminescence (relative luminescent units, RLU). (D & E) Experimental caspase 1 activity was normalized to YVAD (caspase 1 inhibitor) luminescence units. (A-E) Data points represent mean±S.D. of at least 3 independent experiments. *P<0.05 (vs. LPS+ATP); #P<0.05 (vs. LPS+ATP & APC, TR47 or P3R); **P<0.005 (vs. LPS+ATP & TR47+500 nM P3R); n.s. not significant.
THP1 cells were plated at a final concentration of 1×10^6/mL in 96 well plates and incubated with PMA (0.5 μM) for 3 hours 37° C. in supplemented RPMI. Media was subsequently changed every 24 hours for 3 days. Selected wells were treated with APC (4 μg/mL), (A) 50 μM or (B) 2 μM of P3R, P3Rm, P3R 51-65, P3R 51-59, P3R 54-59 or P3R 59-65 for 1 hour, washed with DPBS, and incubated with LPS (1 μg/mL) for 3 hours at 37° C. in serum-free RPMI. Cells were washed with DPBS and incubated with ATP (5 mM) in the presence or absence of 10 μM YVAD (caspase 1 inhibitor; C1i) or 2.5 μM ZVAD (pan-caspase inhibitor; pCi) for 45 minutes at 37° C., prior to performing the caspase 1 activity assay following manufacturer's directions measuring luminescence (relative luminescent units, RLU). (C) Diagram showing the PAR3 sequence, peptide sequences and relative (anti-inflammatory) activity. These include sequences of P3R (SEQ ID NO:4), P3Rm (SEQ ID NO:8), P3R 51-65 (SEQ ID NO:9), P3R 51-59 (SEQ ID NO:10), P3R 54-59 (SEQ ID NO:54) and P3R 59-65 (SEQ ID NO:55).
THP1 cells were plated at a final concentration of 1×10^6/mL in 96 well plates and incubated with PMA (0.5 μM) for 3 hours 37° C. in supplemented RPMI. Media was subsequently changed every 24 hours for 3 days. Selected wells were treated with APC (4 μg/mL), TR47, in (A) 9-mer (TR47 9-mer; NPNDKYEPF (SEQ ID NO:36)) or Ac-TR47 (Acylated TR47) at either 50 μM or 10 nM or (B) 50 μM of 16-mer-TR47, 8-mer-TR47, 6-mer-TR47, TR47 N−1, TR47 N−2, TR47 N−5, TR47AQ, TR47AD, TR47AA or TR48-54 for 1 hour, washed with DPBS, and incubated with LPS (1 μg/mL) for 3 hours at 37° C. in serum-free RPMI. Cells were washed with DPBS and incubated with ATP (5 mM) in the presence or absence of 10 μM YVAD (caspase 1 inhibitor; C1i) or 2.5 μM ZVAD (pan-caspase inhibitor; pCi) for 45 minutes at 37° C., prior to performing the caspase 1 activity assay following manufacturer's directions measuring luminescence (relative luminescent units, RLU). #P<0.001 (vs. LPS+ATP), **P<0.005 (vs. LPS+ATP), * (P<0.05 vs. LPS+ATP). (C) Diagram showing the PAR1 sequence, peptide sequences and relative (anti-inflammatory) activity. These include sequences of TR47 (SEQ ID NO:7), Ac-TR47 (SEQ ID NO:56), 16-mer-TR47 (SEQ ID NO:43), 9-mer-TR47 (SEQ ID NO:36), 8-mer-TR47 (SEQ ID NO:35), 6-mer-TR47 (SEQ ID NO:33), TR47 N−1 (SEQ ID NO:47), TR47 N−2 (SEQ ID NO:51), TR47 N−5 (SEQ ID NO:48), TR47AQ (SEQ ID NO:49), TR47AD (SEQ ID NO:52), TR47AA (SEQ ID NO:50) and TR48-54 (SEQ ID NO:53). […]

[1] = peptide 50 μM for 60 min before LPS (1 μg/mL) and ATP (5 mM), THP1 cells

CC(C)(O)c1coc(S(=O)(=O)NC(=O)Nc2c3c(cc4c2CCC4)CCC3)c1 [MCC950, reference compound]
caspase 1 activity (NLRP3 inhibitor MCC950 10 μM for 30 minutes after LPS, THP1-null cells treated with APC, TR47 or P3R): a significant reduction in caspase 1 activity across all treatments tested

APNDKYEPFWEDEEKNESGL [TR47ΔA]
caspase 1 activity [1]: similarly reduced caspase 1 activity | anti-inflammatory activities relative to that of TR47: maintain substantial anti-inflammatory activities relative to that of TR47

Ac-TR47: Acylated TR47 (N-terminus of TR47 acylated) (Ac-NPNDKYEPF; also: N-terminal acylation, acyl group not given here)
caspase 1 activity [1]: no reduction in caspase 1 activity was observed

FPFSALEGWTGATIT [P3R 51-65]
caspase-1 activity (PAR3 peptide 0 to 16 nM in the presence or absence of 1 nM P1(47-66)): only in the presence of 1 nM P1(47-66) was a significant reduction in caspase-1 activity seen | caspase 1 activity (peptide 50 μM for 60 min before LPS (1 μg/mL) and ATP (5 mM), THP1 cells, listed as P3(51-65)): alone is anti-inflammatory at relatively high concentrations | anti-inflammatory effect (caspase-1 activity) (peptide at 200 nM): neither the isolated PAR1-derived peptide nor the isolated PAR3-derived peptide had an any anti-inflammatory effect

GAPPNSFEEFPFS [P3Rm]
synergistic anti-inflammatory activity (caspase 1 activity) (P3Rm (0 or 16 nM) combined with TR47 (1 nM), FIG. 6A): synergy observed | caspase 1 activity (peptide 2 μM for 1 hour before LPS and ATP, THP1 cells): this effect was lost | caspase 1 activity [1]: a significant reduction in caspase 1 activity was observed

NDKYEPFWEDEEKNESGL [TR47 N−2]
caspase 1 activity [1]: a loss in inhibition of caspase 1 activity

NPNDKY [6-mer TR47]
caspase 1 activity [1]: lost its inhibitory activity

NPNDKYEP [8-mer TR47]
caspase 1 activity [1]: significantly reduced caspase 1 activity | anti-inflammatory activities relative to that of TR47: maintain substantive anti-inflammatory activities relative to that of TR47

NPNDKYEPF [9-mer]
caspase 1 activity [1]: reduced caspase 1 activity similar to the 20-mer TR47 | anti-inflammatory effect (caspase-1 activity) (peptide at 200 nM): neither the isolated PAR1-derived peptide nor the isolated PAR3-derived peptide had an any anti-inflammatory effect | anti-inflammatory effect (caspase-1 activity) (peptide at 500 nM): alone was anti-inflammatory | anti-inflammatory activities relative to that of TR47: maintain substantive anti-inflammatory activities relative to that of TR47

NPNDKYEPFWEDEEKN [16-mer TR47]
caspase 1 activity [1]: significantly reduced caspase 1 activity | anti-inflammatory activities relative to that of TR47: maintain substantive anti-inflammatory activities relative to that of TR47

P3R 54-59: fragment of PAR3-derived peptide P3R, residues 54-59 (SALEGW; UniProt O00254 54-59, looked up, fragment)
caspase 1 activity [1]: only partially reduced caspase 1 activity

P3R 59-65: fragment of PAR3-derived peptide P3R, residues 59-65 (WTGATIT; UniProt O00254 59-65, looked up, fragment)
caspase 1 activity [1]: only partially reduced caspase 1 activity

PNDKYEPFWEDEEKNESGL [TR47 N−1]
synergistic anti-inflammatory activity (caspase 1 activity) (TR47(N−1) (0 or 4 nM) combined with 500 nM P3R, FIG. 6B): synergy observed | caspase 1 activity [1]: still reduced caspase 1 activity | anti-inflammatory activities relative to that of TR47: maintain substantial anti-inflammatory activities relative to that of TR47

QPNDKYEPFWEDEEKNESGL [TR47ΔQ]
caspase 1 activity [1]: similarly reduced caspase 1 activity | anti-inflammatory activities relative to that of TR47: maintain substantial anti-inflammatory activities relative to that of TR47

SFLLRN [reference compound]
caspase 1 activity [1]: neither a scrambled TR47 nor the peptides, SFLLRN or TFLLRN which resemble the novel N-terminal amino acid sequence generated by thrombin's PAR1 cleavage at Arg41 had any effect on caspase 1 activity

TFLLRN (SFLLRN; UniProt P25116 42-47, looked up, fragment) [reference compound]
caspase 1 activity [1]: neither a scrambled TR47 nor the peptides, SFLLRN or TFLLRN which resemble the novel N-terminal amino acid sequence generated by thrombin's PAR1 cleavage at Arg41 had any effect on caspase 1 activity

TR48-54: truncated TR-peptide, removing one amino acid from the N-terminus and part of the C-terminus (FEEFPFS; UniProt O00254 48-54, looked up, fragment)
caspase 1 activity [1]: did not reduce caspase 1 activity

YEPFWEDEEKNESGL [TR47 N−5]
caspase 1 activity [1]: a reduction in caspase 1 activity was observed | anti-inflammatory activities relative to that of TR47: maintain substantial anti-inflammatory activities relative to that of TR47
